This note sets out measurements from patent US8012967B2, “Minor groove binders” (University of Strathclyde, priority 2006, dated 2011).

Format in all cases: cell-based
In test [1] the test system is Staphylococcus aureus Strain 1 (BSAC04(1)) (Clinical isolate from Glasgow Royal Infirmary). Briefly: MIC, Staphylococcus aureus Strain 1. The settings on record: Staphylococcus aureus, read-out: Minimum inhibitory concentrations (MICs), S aureus 1. The method, then:
The effects of compounds of the invention in relation to inhibiting the growth of various microorganisms was determined using methods known to those skilled in the art, for example in vitro methods as described in J. Med. Chem. 47, 2133-2156 (2004) and in vivo methods as described in J. Med. Microbiol. 46, 208-213 (1997), the disclosures of which documents are hereby incorporated by reference.
In particular, minimum inhibitory concentrations (MICs) against microorganisms (e.g. S. Aureus, Streptococcus faecalis, Aspergillus niger, Candida albicans or Mycobacterium fortuitum) for compounds of the invention may be measured using procedures such as those described in A. J. Drummond and R. D. Waigh “The development of microbiological methods for phytochemical screening” Recent Res. Devel. Phytochem. 4, 143-152 (2000), the disclosures of which document are hereby incorporated by reference.
Sample dilutions were typically prepared by dissolving the test sample (2 mg) in sterile water (10 mL) to provide a working concentration of 200 μg/ml. The test wells on each 96 well microtitre plate were initially inoculated with culture medium (100 μL) using Mueller-Hinton Broth for antibacterial assays and Sabouraud Broth for antifungal assays. A solution of each test sample (100 μL) was added to one row of each plate and a series of doubling dilutions made for successive rows. Incubation was at 37° C. for antibacterial assay and 25° C. for antifungal assay. […] From the observed pattern of colour, the MIC was determined. All tests included sterility and growth controls.

The test system of test [2] is Aspergillus niger (IMI 1745). Briefly: MIC, Aspergillus niger. As to conditions: Aspergillus niger, read-out: Minimum inhibitory concentrations (MICs), A. niger. The method, then: (§1) The effects of compounds of the invention in relation to inhibiting the growth of various microorganisms was determined using methods known to those skilled in the art, for example in vitro methods as described in J. Med. Chem. 47, 2133-2156 (2004) and in vivo methods as described in J. Med. Microbiol. 46, 208-213 (1997), the disclosures of which documents are hereby incorporated by reference. In particular, minimum inhibitory concentrations (MICs) against microorganisms (e.g. S. Aureus, Streptococcus faecalis, Aspergillus niger, Candida albicans or Mycobacterium fortuitum) for compounds of the invention may be measured using procedures such as those described in A. J. Drummond and […] development of microbiological methods for phytochemical screening” Recent Res. Devel. […] The test wells on each 96 well microtitre plate were initially inoculated with culture medium (100 μL) using Mueller-Hinton Broth for antibacterial assays and Sabouraud Broth for antifungal assays. A solution of each test sample (100 μL) was added to one row of each plate and a series of doubling dilutions made for successive rows. Incubation was at 37° C. for antibacterial assay and 25° C. for antifungal assay. […] From the observed pattern of colour, the MIC was determined. All tests included sterility and growth controls.

Test [3] has as its system Candida albicans (NCPF3179). Briefly: MIC, Candida albicans. As to conditions: Candida albicans, NCPF3179, read-out: Minimum inhibitory concentrations (MICs), C. albicans. The method, then:
as §1

The test system of test [4] is Staphylococcus aureus Strain 2 (NCTC 6571). Briefly: MIC, Staphylococcus aureus Strain 2. As to conditions: Staphylococcus aureus, NCTC6571, read-out: Minimum inhibitory concentrations (MICs), S. aureus 2. The method, then:
as §1

The test system of test [5] is Streptococcus faecalis (NCTC 775). Briefly: MIC, Streptococcus faecalis. As to conditions: Enterococcus faecalis, NCTC775, read-out: Minimum inhibitory concentrations (MICs), St. faecalis. The method, then: as §1
Test [6] deals with Mycobacter fortuitum (NCTC 10394). Briefly: MIC, Mycobacter fortuitum. The settings on record: Mycolicibacterium fortuitum, NCTC10394, read-out: Minimum inhibitory concentrations (MICs), M. fortuitum. The method, then: as §1
Setting [7] is: value in parentheses, na = not active.

Like-named read-outs stand apart in the source and are kept apart here.

On to `COc1cccc(/C=C/c2ccc(C(=O)Nc3cc(C(=O)Nc4cc(C(=O)NCCCN(C)C)n(C)c4)n(C)c3)cc2)c1` [Example 4, N-[5-({[3-(Dimethylamino)propyl]amino}carbonyl)-1-methyl-1H-pyrrol-3-yl]-4-({4-[(E)-2-(3-methoxyphenyl)ethenyl]benzoyl}amino)-1-methyl-1H-pyrrole-2-carboxamide], for which the MIC in test [1] (setting [7]) came out at 6.25 µg/mL; in test [1] (value outside parentheses), 8.9 µM; in test [2] (setting [7]), 50 µg/mL; in test [2] (value outside parentheses), 72 µM; in test [3] (setting [7]), 100 µg/mL; in test [3] (value outside parentheses), 143 µM. For the same compound, the MIC in test [4] (setting [7]) was 12.5 µg/mL; in test [4] (value outside parentheses), 17.9 µM.
As for `Cn1cc(NC(=O)c2cc(NC(=O)c3cc(/C=C/c4cnc5ccccc5c4)cn3C)cn2C)cc1C(=O)NCCN1CCOCC1` [Example 10, 1-Methyl-N-[1-methyl-5-({[1-methyl-5-({[2-(4-morpholinyl)ethyl]amino}-carbonyl)-1H-pyrrol-3-yl]amino}carbonyl)-1H-pyrrol-3-yl]-4-[(E)-2-(3-quinolinyl)ethenyl]-1H-pyrrole-2-carboxamide], the MIC in test [5] (setting [7]) was found to be 12.5 µg/mL; in test [5] (value outside parentheses), 15 µM; in test [1] (setting [7]), 4 µg/mL; in test [1] (value outside parentheses) it was 5.3 µM; in test [6] (setting [7]), 100 µg/mL; in test [6] (value outside parentheses), 116 µM. Moreover, the values for the MIC in test [3] (setting [7]) and in test [3] (value outside parentheses) were 100 µg/mL and 116 µM, respectively.
With `CC(C)CCc1sc(NC(=O)c2cc(NC(=O)c3ccc(/C=C/c4cnc5ccccc5c4)cc3)cn2C)nc1C(=O)NCCN1CCOCC1` [Example 16, 5-Isopentyl-2-({[1-methyl-4-({4-[(E)-2-(3-quinolinyl)ethenyl]benzoyl}amino)-1H-pyrrol-2-yl]carbonyl}amino)-N-[2-(4-morpholinyl)ethyl]-1,3-thiazole-4-carboxamide], the MIC in test [6] (setting [7]) came out at 100 µg/mL; in test [6] (value outside parentheses), 122 µM; in test [2] (setting [7]) it was 100 µg/mL; in test [2] (value outside parentheses) it was 122 µM; in test [3] (setting [7]), 50 µg/mL; in test [3] (value outside parentheses), 61 µM.
With `CC(C)CCc1sc(NC(=O)c2cc(NC(=O)c3ccc(/C=C/c4cc5ccccc5nc4Cl)cc3)cn2C)nc1C(=O)NCCN1CCOCC1` [Example 17, 2-({[4-({4-[(E)-2-(2-Chloro-3-quinolinyl)ethenyl]benzoyl}amino)-1-methyl-1H-pyrrol-2-yl]carbonyl}amino)-5-isopentyl-N-[2-(4-morpholinyl)ethyl]-1,3-thiazole-4-carboxamide], the MIC in test [6] (setting [7]) is 100 µg/mL; in test [6] (value outside parentheses), 117 µM; in test [3] (setting [7]) it was 100 µg/mL; in test [3] (value outside parentheses) it was 117 µM.
`CC(C)CCc1sc(NC(=O)c2cc(NC(=O)c3ccc(/C=C/c4cc5ccccc5nc4On4nnc5ccccc54)cc3)cn2C)nc1C(=O)NCCN1CCOCC1` [Example 18, 2-[({4-[(4-{(E)-2-[2-(1H-1,2,3-Benzotriazol-1-yloxy)-3-quinolinyl]ethenyl}-benzoyl)amino]-1-methyl-1H-pyrrol-2-yl}carbonyl)amino]-5-isopentyl-N-[2-(4-morpholinyl)ethyl]-1,3-thiazole-4-carboxamide]: the MIC in test [6] (setting [7]) stood at 100 µg/mL; in test [6] (value outside parentheses) it was 169 µM; in test [3] (setting [7]), 100 µg/mL; in test [3] (value outside parentheses), 169 µM.
`CSc1ccc(/C=C/c2ccc3cc(C(=O)Nc4cc(C(=O)Nc5cc(C(=O)NCCN6CCOCC6)n(C)c5)n(C)c4)ccc3n2)cc1` [Example 24, N-[1-Methyl-5-({[1-methyl-5-({[2-(4-morpholinyl)ethyl]amino}carbonyl)-1H-pyrrol-3-yl]amino}carbonyl)-1H-pyrrol-3-yl]-2-{(E)-2-[4-(methylsulfanyl)-phenyl]ethenyl}-6-quinolinecarboxamide]: the MIC in test [5] (setting [7]) came out at 100 µg/mL; in test [5] (value outside parentheses), 26 µM; in test [1] (setting [7]), 4 µg/mL; in test [1] (value outside parentheses), 5.1 µM; in test [2] (setting [7]), 100 µg/mL; in test [2] (value outside parentheses), 126 µM. In addition, the MIC was 100 µg/mL in test [3] (setting [7]), 126 µM in test [3] (value outside parentheses), 100 µg/mL in test [4] (setting [7]) and 126 µM in test [4] (value outside parentheses).
